The experiment addresses T1, 3-hydroxy-3-methylglutaryl coenzyme A reductase (Rattus norvegicus, UniProt P51639).
T1 sequence (P51639 1-887): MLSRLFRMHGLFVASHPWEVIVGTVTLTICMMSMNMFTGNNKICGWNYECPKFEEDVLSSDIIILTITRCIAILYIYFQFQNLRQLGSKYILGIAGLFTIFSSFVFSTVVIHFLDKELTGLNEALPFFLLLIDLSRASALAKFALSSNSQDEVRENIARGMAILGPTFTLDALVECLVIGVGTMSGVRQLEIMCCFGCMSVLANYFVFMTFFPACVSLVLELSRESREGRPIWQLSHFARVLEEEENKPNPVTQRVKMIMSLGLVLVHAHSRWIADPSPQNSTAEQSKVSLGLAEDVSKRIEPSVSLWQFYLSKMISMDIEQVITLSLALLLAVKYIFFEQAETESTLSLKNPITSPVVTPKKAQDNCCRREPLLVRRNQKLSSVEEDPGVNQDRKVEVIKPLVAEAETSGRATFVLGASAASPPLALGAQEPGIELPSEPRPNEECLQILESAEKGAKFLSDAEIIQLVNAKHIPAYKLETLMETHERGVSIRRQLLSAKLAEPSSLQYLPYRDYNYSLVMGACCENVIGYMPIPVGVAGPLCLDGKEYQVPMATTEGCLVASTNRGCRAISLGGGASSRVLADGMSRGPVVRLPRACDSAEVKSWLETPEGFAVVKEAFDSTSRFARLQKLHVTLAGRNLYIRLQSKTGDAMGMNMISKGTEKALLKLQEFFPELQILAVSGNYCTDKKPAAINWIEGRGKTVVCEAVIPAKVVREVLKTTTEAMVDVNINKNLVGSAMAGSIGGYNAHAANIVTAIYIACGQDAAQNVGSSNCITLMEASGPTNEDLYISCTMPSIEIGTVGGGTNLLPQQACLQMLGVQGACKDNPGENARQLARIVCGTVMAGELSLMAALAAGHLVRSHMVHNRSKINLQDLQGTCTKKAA
As to the kind of experiment: Method A: in vitro enzyme inhibition by the method of Knauss et al. The experiment is classed as biochemical. From the text:
The inhibitory activity of these compounds for the biosynthesis of cholesterol has been measured by two methods. The experimental method A has been realized in vitro by the method of H. J. Knauss, et al., J. Biol. Chem., 234, 2835 (1959) and the activity was expressed as the molar concentration IC50(M) necessary for the inhibition of 50% of the enzymatic activity. The experimental method B was the method of A. A. Kandutsch, et al., J. Biol. Chem., 248, 8403 (1973) for measuring the quantity of ^14C-cholesterol biosynthesis from acetic acid-^14C in mouse L cells. The activity is expressed for inhibition of 50% of the biosynthesis of cholesterol.

The structures appear in SMILES notation. Where a name gives a salt, the structure may show the parent alone.

As a reminder, the IC50 is the concentration that inhibits the measured activity by half.

Regarding `O=C(O)C[C@H](O)C[C@H](O)/C=C/c1c(Cl)cc(Cl)cc1-c1ccc(F)cc1` (single isomer, unassigned) [Example 38, (+)-(E)-(3R*, 5S*)-7-(3,5-dichloro-4'-fluoro[1,1'-biphenyl]-2y1)-3,5-dihydroxy-6-heptenoic acid, ammonium salt], under “both tested as the sodium salts of their corresponding hydroxy acid forms”, the “potency compared with compactin” value is reported as “greater than that of compactin”. Also, the half-inhibitory concentration (IC50) (tested as the sodium salts of their corresponding hydroxy acid forms, method not restated) is around 2.8 nM. On to `O=C1C[C@H](O)C[C@@H](CCc2c(Cl)cc(Cl)cc2OCc2ccccc2)O1` (single isomer, unassigned) [Example 14, (+)-Trans-6-[2-(2,4-dichloro-6-phenylmethoxyphenyl)ethyl]-3,4,5,6-tetrahydro-4-hydroxy-2H-pyran-2-one], for which the IC50 (test by method A) came out at 68 nM.

For the origin of these results see EP0024348A1, “Substituted 6-Phenethyl-and phenylethenyl-3,4,5,6-tetrahydro-4-hydroxytetraydropyran-2-ones in the4-R trans stereoisomeric forms and the corresponding dihydroxy acids, process for preparing and pharmaceutical composition comprising them” (Merck & Co., Inc., priority 1979, dated 1981).
